# Measurements from patent US20160195530A1, “METHOD FOR ANALYSIS OF NKT CELL FUNCTION” (RIKEN, priority 2005, published 2016).
# Assays:
# [1] = system: NKT cells in peripheral blood; assay: ELISPOT assay of IFN-γ-producing cells with α-GalCer-loaded mature DCs (autologous, allogeneic, heterologous); type: cell-based, human; settings: α-GalCer 100 ng/ml
# From the text: In order to study whether activation of NKT cells in peripheral blood varies by DCs of different derivation, NKT cell activation in an autologous, allogeneic or heterologous system was studied by an ELISPOT assay with IFN-γ productivity as an index.
# Human DCs were obtained by purifying CD14% monocytes with magnetic beads (Miltenyi Biotec Inc. Auburn, Calif.) and cultivating them for 7 days in the presence of 500 U/ml recombinant human IL-4 and 1,000 U/ml recombinant human GM-CSF. α-GalCer (100 ng/ml) or the same amount of vehicle (DMSO, Sigma) was loaded onto DCs at the 5th day, given maturation stimuli (10 ng/ml IL-1β, 10 ng/ml TNFα, and 1 μg/ml PGE2) at the 6th day, and recovered at the 7th day.
# Bone marrow precursor cells were grown into DCs induced from mouse bone marrow in 5% FCS-containing RPMI-1640 using mouse GM-CSF. At the 6th day, α-GalCer (100 ng/ml) was added to immature bone marrow DCs, and cultivation was performed for 40 hr. For maturation of DCs, 100 ng/ml LPS was added at the 7th day, and cultivation was performed for 16 hr. Matured α-GalCer-pulsed DCs were recovered at the 8th day.
# For detection of IFN-γ-secreting cells, 96-well filtration plates (Millipore, Bedford, Mass.) were coated with mouse anti-human IFN-γ (10 μg/ml, Mabtech, Sweden). PBMCs (1×10^6) were incubated in RPMI containing 5% human AB serum or 10% calf serum (complete medium or CM; GIBCO) in either presence or absence of α-GalCer (100 ng/ml). PMA (10 μg/ml) and ionomycin were used as positive controls. […] Spot-forming cells (SFC) were quantified with a microscope. When the reactivity was not less than 10 SFC/well and not less than twice the background (without αGalCer), the assay was scored as positive. In order to compare naive NKT cell activation ability of different APCs (autologous, allogeneic and heterologous DC) in cultures, Mφ-depleted cells (1×10^6/well) were cultivated with […] α-GalCer or vehicle-loaded APCs (1×10^5/well) in CM for 16 hr. α-GalCer-dependent IFN-γ-producing cells were measured by an ELISPOT assay.
# human NKT cells = assay: IFN-γ ELISA after cocultivation of isolated human NKT cells with α-GalCer-pulsed autologous or heterologous DCs; type: cell-based; settings: α-GalCer-pulsed heterologous (mouse) DCs versus autologous DCs
# Method: In order to clarify that a human NKT cell can be specifically activated by a heterologous DC, human NKT cells were isolated, cocultivated with α-GalCer-pulsed autologous or heterologous DCs, after which the culture supernatants were collected, and cytokine production was measured by the ELISA method.
# After growth of the NKT cell with α-GalCer and IL-2, the cells were sorted using FACS Vantage with anti-invariant NKT antibodies, and cocultivated with α-GalCer-pulsed heterologous or autologous DCs, after which IFN-γ was quantified by the ELISA method.
# NKT cell line = assay: Antigen-specific growth of NKT cell line cocultivated with heterologous DCs; type: cell-based, human; settings: heterologous DCs in presence of antigen, 10 days, serially diluted NKT cell line mixed with NKT cell-removed PBMCs
# Method: Mature DCs were stimulated for maturation, as well as pulsed using α-GalCer (100 ng/ml) for 48 hr in the 5th-7th days of the cultivation. 1×10^4 DCs pulsed with α-GalCer were added to the each well of 1×10^5 Mφ-depleted PBMCs in the presence of recombinant IL-2 (100 U/ml). 10-14 Days later, Va24^+ NKT cells were stained with FITC-labeled anti-Vα24 mAb, and selected using anti-FITC magnetic beads. Va24^+ NKT cells were maintained as a cell line in CM in the presence of 100 U/ml IL-2, and restimulated by PBMCs that had been irradiated in the presence of α-GalCer.
# After serial dilution of the NKT cell line that was prepared by the method described in Example 4, the diluted solutions were mixed with NKT cell-removed PBMCs, cocultivated with heterologous DCs in the presence of an antigen (α-GalCel), and the growth rates were calculated 10 days later.
# [2] = system: NKT cell contained in peripheral blood of a healthy subject; assay: Cocultivation of Mφ-depleted PBMC with α-GalCer-pulsed mature mouse DC, flow cytometry and intracellular staining; type: cell-based, human; settings: healthy subjects; α-GalCer-pulsed mature mouse DCs, IL-2 100 U/ml, 9 days
# Method: At first, mouse DCs were induced from mouse bone marrow cells. Mouse bone marrow cells were cultivated in 5% FCS-containing RPMI-1640 in the presence of mouse GM-CSF under 5% CO2 at 37° C. for 5 days.
# Subsequently, immature mouse DCs were maturated. To the culture obtained as mentioned above (containing immature mouse DCs), α-GalCer (100 ng/ml) was added at the 6th day, and the culture was cultivated for 40 hr. For an acieration of the maturation, 100 ng/ml LPS was added at the 7th day, and the culture was cultivated for 16 hr. Thus obtained α-GalCer-pulsed mature mouse DCs were recovered at the 8th day.
# PBMCs were obtained by blood drawing from healthy subjects, and Mφ-depleted PBMCs were obtained by removing macrophages (Mφ) using an anti-CD14 antibody (simultaneously using a CD11c antibody as necessary) and magnetic beads.
# α-GalCer-pulsed mature mouse DCs (5×10^4 cells/ml) obtained by the above-mentioned (1) and Mφ-depleted PBMCs (5×10^5 cells/ml) obtained by the above-mentioned (2) were cultivated in 10% FCS-containing RPMI-1640 in the presence of recombinant human IL-2 (100 U/ml) under 5% CO2 at 37° C. for 9 days.
# After cultivation in accordance with the protocol of the above-mentioned (1)-(3), the number of NKT cells and the frequency of NKT cells having an cytokine production ability were measured by flow cytometry and intracellular staining. […]
compound,measurement,setting,value
"CCCCCCCCCCCCCCCCCCCCCCCCCC(=O)N[C@@H](CO[C@H]1O[C@H](CO)[C@H](O)[C@H](O)[C@H]1O)[C@H](O)[C@H](O)CCCCCCCCCCCCCC [α-GalCer, 25,35,4R-1-0(α-galactopyranosyl)-2(N-hexacosanoylamino)-1,3,4-octadecanetriol]","α-GalCer-dependent NKT cell activation (IFN-γ productivity, ELISPOT)","[1]; high frequency NKT cell-containing group (% NKT>0.05%), autologous and heterologous DCs",activation of NKT cell was confirmed
same,"α-GalCer-dependent NKT cell activation (IFN-γ productivity, ELISPOT)",[1]; low frequency NKT cell-containing group (% NKT<0.01%),NKT cell activation was not confirmed
same,"α-GalCer-dependent NKT cell activation (IFN-γ productivity, ELISPOT)",[1]; middle frequency NKT cell-containing group (0.01%<% NKT<0.05%),"activation of NKT cell was confirmed in an α-GalCer dependent manner, but the production amount was found to be decreased"
same,"IFN-γ production (ELISA, culture supernatant)",human NKT cells,"IFN-γ production was confirmed in the heterologous system, though it was lower than in the autologous system"
same,antigen-specific growth of human NKT cells,NKT cell line,antigen-specifically grown by heterologous DCs
same,"cytokine production (frequency of NKT cells having cytokine production ability, IFN-γ)",[2],confirmed
same,α-GalCer-dependent growth of human NKT cells (number of NKT cells),[2],confirmed
